In patent US20230226135A9, “ACETYLCHOLINE MODULATION OF IMMUNE FUNCTION” (BCell Solutions, Inc., priority 2019, published 2023):

Assays:
splenic B cells [1] = assay: alpha 7 nAChR expression on splenic B cells after TLR 9 agonist CpG (flow cytometry); type: cell-based, mouse; conditions: after CpG treatment
Method: Cell Culture. Mice were sacrificed and spleens were removed. The tissues were dissociated, from which single cell suspensions were made by passing the spleens through 40 μm cell strainers. Red blood cells were lysed using ACK Buffer (Sigma, Inc). Cells were then cultured with TLR ligands at the designated concentrations at 1.010^6 cells/mL in 6 well plates. Cells were grown in RPMI 1640 (Invitrogen) supplemented with 5% fetal bovine serum (Invitrogen) in a humidified 5% CO2 incubator at 37° C. for the designated time period.
Isolation of Splenic Cells. Splenocytes were isolated from 8 week old C57BL/6J mice. Following sacrifice, spleens were removed and splenocytes isolated as above. Cells were then resuspended in complete RPMI and were cultured with the TLR ligands at the designated concentrations at 10^6 cells/mL in 6 well plates. […]
Antibodies and Flow Cytometry. […] Following staining, cells were analyzed comparing each level of staining to the appropriate isotype control on a Beckman Coulter Cytoflex benchtop flow cytometer. Data was analyzed using FlowJo software (Tree Star Inc.).
In FIG. 1A the X-axis represents fluorescence intensity of MHC class II expression on untreated splenic B cells from a C57BL6 mouse. […] The X axis reflects the relative fluorescence intensity before (green histogram) and after treatment with the TLR 9 agonist CpG (blue histogram).

CD8+ T cells = assay: CAP-induced expansion of CD8+ T cells with or without α7nAChR antagonist; type: in vivo; conditions: with CAP
[2] = Dosing formulation storage and stability; type: physicochemical; conditions: 0.6 mg/mL in saline, frozen at -20 C
Method: Test Article Formulation Instructions & Calculations: Peptide dosing solution (0.2 mg/mL) was made fresh daily within 1 hour of use by diluting 0.09 mL of 5 mg/mL DMSO stock into 2.11 mL sterile saline. DMSO stock was kept at 4 C, then refrozen (to avoid repeated freeze-thaw cycles). Still, stock was relatively “solid” even at 4 C.
MLA antagonist dosing solution (0.6 mg/mL) was made on Day 2 by diluting the entire 5 mg in the sealed vial with 8.3 mL of sterile saline and aliquoting out ˜1.1 mL in each of seven 2 mL cryovials and freezing at −20 C. Four vials were used in the experiment, each thawed within 1 hour of use. Three vials remain frozen.
Dosing Formulations and Vehicle Storage & Stability: Saline vehicle is stable at 4 C for months. Peptide dosing solutions were made up and used fresh daily. […] MLA frozen “stock” solutions were stable for up to 1 month.

splenic B cells [3] = assay: CFA-sensitized mice treated with Peptide with or without MLA, FACS of splenic B cells; type: in vivo
Method: SUMMARY: A study was conducted to evaluate a potential alpha7 nAChR anti-inflammatory mechanism of the MKR-4 peptide, using the alpha7 nAChR antagonist methyllycaconitine (MLA). After enrollment, animals in Groups 2-4 were sensitized ID at the base of the tail with 0.1 mL FCA on Day 1. On Days 2, 3, 5 & 7 Groups were then dosed intraperitoneally (IP) with either: peptide and MLA in combination (2 mg/kg and 6 mg/kg, respectively); peptide (2 mg/kg) and MLA vehicle (saline) in combination; or peptide vehicle (saline) and MLA vehicle (saline). Animals were dosed once on Study Day 2 (MLA or MLA vehicle), and Days 3, 5 & 7 (Peptide or Peptide vehicle, MLA or MLA vehicle) as described in Table 2 below. Body weights were recorded on Study Days 0 & 8. Mice were euthanized for necropsy on Study Day 8, and serum and whole spleens were collected from all animals and sent to the sponsor for internal FACS analysis. Toxicity and Peptide mechanistic evaluation was based on absolute body weight change, spleen weights and sponsor FACS analysis (not included in report).
Antibodies and Flow Cytometry. Single cell suspensions were made of tissues or cells harvested from culture and stained with the following monoclonal antibodies: a monoclonal antibody directed against mouse alpha 7 nicotinic acetylcholine receptor (alpha 7 nAChR) (Santa Cruz Biotechnology); anti-mouse MHC Class II (M5114), and anti-mouse CLIP 15G4, Santa Cruz. Following staining, cells were analyzed comparing each level of staining to the appropriate isotype control on a Beckman Coulter Cytoflex benchtop flow cytometer. Data was analyzed using FlowJo software (Tree Star Inc.).
Experimental Design: On Study Day 0, mice were weighed and randomized by body weight into treatment groups. Following randomization, on Study Day 1, Groups 2-4 were sensitized ID at the base of the tail with 0.1 mL of FCA. When MLA and Peptide (FRIMAVLAS (SEQ ID NO: 389))—or their vehicles—were dosed on the same day, the MLA antagonist or vehicle was dosed 1 hour before the Peptide or its vehicle.
On Study Day 8, mice were anesthetized with Isoflurane (VetOne, Cat #502017) and bled to exsanguination followed by cervical dislocation for necropsy and tissue collection.

CLIP+ B cells = assay: CFA-induced arthritis model, CAP depletion of B cells with or without α7nAChR antagonist; type: in vivo, mice; conditions: co-treated with CAP, CFA model
Method: FIGS. 11A-11B. […] In this study, CAP was administered at 3 days after CFA, then once daily every 3 days, until day 10 after CFA.
The next series of experiments are focused on the effects of CAP on splenic immune cells. […] As part of this experiment, the mice were co-treated with CAP and the alpha-7 nicotinic acetylcholine receptor (α7nAChR) antagonist, methyllycaconitine (MCA).

[4] = test system: blood brain barrier (BBB); assay: Intravital microscopy of BBB permeability and lymphocyte adhering/rolling in pial venules; type: in vivo, C57 BL/6J mice; conditions: P3C i.p., 24 hours
Excerpt: Whether intranasal infection with Streptococcus pyogenes would induce blood-brain barrier permeability in C57 BL/6J mice by a TLR-dependent mechanism was examined. Immediately following craniotomy, mice were placed under an intravital microscope to study vascular permeability and leukocytes. Permeability of cerebral blood vessels was observed using FITC-dextran fluorescent dye and, tracing of leukocytes is observed by labeling such cells with Rhodamine-6G. Intranasal infection with Streptococcus pyogenes (gram positive) increased BBB permeability (FIG. 4) and the number of adherent or rolling lymphocytes (FIG. 4) within 24 hours post-infection, compared to saline treated controls.
Methods: To test the hypothesis that intranasal infection may increase BBB permeability, we exposed mice to GAS via intranasal infection with Streptococcus pyogenes (GAS). We assessed BBB permeability using intravital microscopy, and we characterized the immune response to GAS using flow cytometric analysis of nasal associated lymphoid tissue (NALT), spleen, and brain.
Intranasal infection: Isoflurane gas was employed to briefly anesthetize mice (1-2 minutes). Once anesthetized, 7.5 uL of streptococcal bacterial suspension (OD600=0.5-0.6) was placed on each nares (outer nostril) of mouse. Control mice received intranasal inoculation with vehicle (PBS). The droplets were inhaled into nasal sinuses. This small volume avoids inoculation of the lungs, but reproducibly results in colonization of nasal-associated lymphoid tissue (NALT, Park 2003; Wang 2010).
Intraperitoneal injection: The TLR 1/2 agonist, Pam-3-Cys (25 ug/mouse; Pam3CSK4, InvivoGen, San Diego Calif.) was intraperitoneally (right side) injected into mice 24 hours before intravital microscopy. P3C causes immune cell activation and polycolonal expansion of B-lymphocytes by Toll-Like receptor ligation (Newell 2010). Control mice received equal volume of vehicle (PBS) intraperitoneally.
MHC class II-targeted proprietary peptide (TPP, Elim Biopharmaceuticals Inc., Hayward Calif.; also see Newell 2010) was administered intraperitoneally (5 ug/mouse, left side), sometimes in conjunction with P3C (right side). TPP was dissolved in DMSO for a final concentration of 2.5% DMSO in PBS. Control mice received vehicle (2.5% DMSO in PBS) intraperitoneally.
Preparation of Mice: Mice were anesthetized with an (i.p.) injection of 50% urethane (Sigma-Aldrich, U2500) in PBS ([…]) and maintained on heating pad. Anesthetic plane was assessed throughout preparation and experiments, by response to toe pinch. If needed, urethane supplement was given at 10% of original dose volume. To prepare mice tails for intravenous (i.v.) dye injection we maintained anesthetized mice on a heating pad for 10-15 minutes, and then briskly wiped tails (toward tail-end) with 70% ethanol wipes to remove scales/hair and increase vasodilation. Immediately following tail wiping, Fluorescein dextran 10 kDa (10 mg/mL, Sigma-Aldrich, FD10S) was administered (2 uL/g mouse) via right lateral tail vein and, Rhodamine 6G (0.2 mg/mL, Sigma-Aldrich, 83697) was administered (1.6 uL/g mouse) via left lateral tail vein. When needed, tail was wiped multiple times to ensure clear visualization of tail veins. Following successful (i.v.) injection of dyes, mice underwent craniotomy.
Craniotomy: A craniotomy (removal of a small area of skull) was performed to expose the cerebrum and allow imaging of cerebral microvasculature (specifically pial vessels of pia mater). First, an incision across the midline of the scalp was made to expose the right parietal bone. The skull was then carefully marked with a waterproof marker, designating the area, 1 mm posterior from the Bregma and 4 mm lateral from the midline, to be removed (craniotomy diameter: 2.5 mm). Next, the craniotomy was performed with a drill ensuring the dura mater was not cut. […]

5′-tcgtcgttttgtcgttttgtcgtt-3′ [CpG]
relative level of expression of nAChR per cell (splenic B cells [1]): increases | total splenocytes that express alpha 7 nAChR (splenic B cells [1]; untreated 9%): 37.6%

CCN1C[C@]2(COC(=O)c3ccccc3N3C(=O)C[C@H](C)C3=O)CC[C@H](OC)[C@@]34[C@@H]5C[C@H]6[C@H](OC)[C@@H]5[C@](O)(C[C@@H]6OC)[C@@](O)([C@@H](OC)[C@H]23)[C@@H]14 [MLA, methyllycaconitine, reference compound]
effect of α7nAChR antagonist on CAP-induced CD8+ T cell expansion (CD8+ T cells): reversed | effect of α7nAChR antagonist on CAP-induced CD8+ T cell expansion (CD8+ T cells; listed as MCA): blocked | stability of frozen stock solutions [2]: up to 1 month | effect of MLA on Peptide induced reduction in CLIP+ B cells (splenic B cells [3]; CFA treated mice, MLA 6 mg/kg IP 1 hour before Peptide): reversed | percentage of splenic B cells (splenic B cells [3]; CFA treated, Peptide treated (2 mg/kg) and treated with MLA (6 mg/kg IP)): 44.8% | effect of α7nAChR antagonist on CAP-induced decrease in B cell expansion (CLIP+ B cells): reversed | effect of α7nAChR antagonist on CAP-induced decrease in B cell expansion (CLIP+ B cells; listed as MCA): prevented

Pam-3-Cys [P3C, reference compound]
largest observed diameter of adherent lymphocytes [4]: 15 um | number of rolling lymphocytes ([4]; vs control, p<0.01): significantly increased | number of adherent lymphocytes ([4]; vs control, p<0.05): significantly increased | average diameter of adherent lymphocytes ([4]; control 5 um): 10 um
